Data published in patent US5750550A, “2-(pyrazol-5-yl-oxymethyl)-1,2-benzisothiazol-3 (2H)-One 1, 1-dioxides and compositions and method of use thereof” (Sanofi, priority 1995, dated 1998).

These compounds were tested against T1, human leukocyte elastase (Homo sapiens, UniProt P08246) (assay: human leukocyte elastase (HLE) inhibitory activity, substrate MeOSuc-Ala-Ala-Pro-Val-pNA). Conditions: pH 7.8, 25° C., steady-state velocities.
T1 sequence (P08246 30-267): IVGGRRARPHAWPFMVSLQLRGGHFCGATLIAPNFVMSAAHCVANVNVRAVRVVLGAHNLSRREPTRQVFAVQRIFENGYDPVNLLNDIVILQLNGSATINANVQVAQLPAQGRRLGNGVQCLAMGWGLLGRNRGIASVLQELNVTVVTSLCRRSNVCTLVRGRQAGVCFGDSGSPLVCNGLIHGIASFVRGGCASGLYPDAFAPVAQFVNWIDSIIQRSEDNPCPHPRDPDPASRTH
Assay type: biochemical
Experimental: The test compound (inhibitor) is dissolved in DMSO in a vial to produce an inhibitor stock solution which has a concentration in the range of 200-1000 μM. The inhibitor stock solution is diluted (1:4, 1:16 and 1:64) into assay vials (vials 1, 2 and 3 respectively) containing 2.4 mL of buffer solution (50 mM N-[2-hydroxyethyl] piperazine-N'-[2-ethanesulfonic acid]/NaOH, 500 mM NaCl, pH 7.8 at 25° C.) and DMSO is added so that the total volume in each vial is 3.2 mL. 70 μL, 50 μL, 35 μL and 25 μL of inhibitor from assay vial 1 is placed into the first four wells of a 96-well microtiter plate and each well is made up to 90 μL total volume with the addition of a 25% DMSO/buffer solution. The inhibitor from assay vials 2 and 3 is processed in a similar manner and placed in wells 5-12 respectively to afford a total of 12 different inhibitor concentrations. Four wells (wells 13-16) containing 90 μL of the 25% DMSO/buffer solution but no inhibitor are also run simultaneously with the inhibited wells as a control. 150 μL of substrate solution (prepared by the addition of 500 μL of the human leukocyte elastase (HLE) substrate MeOSuc-Ala-Ala-Pro-Val-pNA (18.7 mM in DMSO) to 19.5 mL of buffer solution) is then added simultaneously into each of the 16 wells and the solution in each well was thoroughly mixed.
The 96-well microtiter plate is placed into a Microplate Reader #89815A spectrophotometer and 110 μL of the enzyme solution (prepared as follows: a mixture of 20 mL of buffer solution and 20 mg of bovine serum albumen is gently vortexed in a scintillation vial and 5 μL HLE stock solution (1 mg/mL dissolved in deionized water) is added) is added simultaneously to each of the 16 wells. Each of the solutions in the wells is throughly mixed and then the time-dependent absorbance data is collected at an absorbance of 410 nm until the assay is complete. It should be noted that although this assay method can be done manually, it is preferred to perform the assay robotically using a Hewlett Packard MicroAssay System Robot. the absorbance versus time data thus obtained affords curves the final slope of which is equal to the final steady-statevelocities (VF). Using the program ENZFITTER (Elsevier software), the progress curves for the four control assays ([I]=0 are fit by linear regression to yield the enzyme reaction velocity values in the absences of inhibitor (Vo) which are averaged to produce a single fixed value. The inhibition constant Ki (nM) is then obtained from a plot of [formula] which affords a linear plot wherein: [formula] and [S] is the concentration of the substrate and Km is the Michaelis constant.
Table I summarizes the results obtained from the testing of compounds of the invention for human leukocyte elastase inhibitory activity.

Going from `COc1cc(C(C)C)c2c(c1)S(=O)(=O)N(COc1cc(C(F)(F)F)nn1-c1ncccc1C)C2=O` [45 (b), 4-isopropyl-6-methoxy-2-[1-(3-methyl-2-pyridyl)-3-trifluoromethylpyrazol-5-yl-oxymethyl]-1,2-benzisothiazol-3(2H)-one 1,1-dioxide] to `COc1cc(C(C)C)c2c(c1)S(=O)(=O)N(COc1cc(C(F)(F)F)nn1-c1ccccn1)C2=O` [10 (b), 4-isopropyl-6-methoxy-2-[1-(2-pyridyl)-3-trifluoromethylpyrazol-5-yl-oxymethyl]-1,2-benzisothiazol-3(2H)-one 1,1-dioxide], the Ki falls from 0.061 nM to 0.024 nM (2.5-fold). The second binds more tightly here.

First: COc1cc(C(C)C)c2c(c1)S(=O)(=O)N(COc1cc(Br)nn1-c1ccccc1)C2=O [52 (b), 4-isopropyl-6-methoxy-2-[1-phenyl-3-bromopyrazol-5-yl-oxymethyl]-1,2-benzisothiazol-3(2H)-one 1,1-dioxide]
Second: COc1cc(C(C)C)c2c(c1)S(=O)(=O)N(COc1cc(Cl)nn1-c1ccccc1)C2=O [24 (c), 4-isopropyl-6-methoxy-2-(1-phenyl-3-chloropyrazol-5-yl-oxymethyl)-1,2-benzisothiazol-3(2H)-one 1,1-dioxide]
The Ki of the first is 2.5-fold higher: 0.066 nM for the first, 0.026 nM for the second.

First: COc1cc(C(C)C)c2c(c1)S(=O)(=O)N(COc1cc(C(F)(F)F)nn1Cc1ccccc1)C2=O [Example 48, 4-isopropyl-6-methoxy-2-[1-benzyl-3-trifluoromethylpyrazol-5-yl-oxymethyl]-1,2-benzisothiazol-3(2H)-one 1,1-dioxide]
Second: COc1cc(C(C)C)c2c(c1)S(=O)(=O)N(COc1cc(C(F)(F)F)nn1-c1ccc(Cl)cc1)C2=O [8 (b), 4-isopropyl-6-methoxy-2-[1-(4-chlorophenyl)-3-trifluoromethylpyrazol-5-yl-oxymethyl]-1,2-benzisothiazol-3(2H)-one 1,1-dioxide]
The Ki of the first is 350-fold higher: 39 nM for the first, 0.11 nM for the second. The second binds more tightly here.

`CC(C)c1cc(OCCCCCC(=O)O)cc2c1C(=O)N(COc1cc(C(F)(F)F)nn1-c1ccccc1)S2(=O)=O` [37 (f), 4-isopropyl-6-[5-(carboxy)-enthyloxy]-2-(1-phenyl-3-trifluoromethylpyrazol-5-yl-oxymethyl)-1,2-benzisothiazol-3(2H)-one 1,1-dioxide] and `CC(C)c1cc(OCCCC(=O)O)cc2c1C(=O)N(COc1cc(C(F)(F)F)nn1-c1ccc(Cl)cc1)S2(=O)=O` [39 (c), 4-isopropyl-6-[3-(carboxy)propoxy]-2-[1-(4-chlorophenyl)-3-trifluoromethylpyrazol-5-yl-oxymethyl]-1,2-benzisothiazol-3(2H)-one 1,1-dioxide] are within 1.5-fold of each other in Ki: 0.081 nM for the first, 0.074 nM for the second.

First: COc1cc(C(C)C)c2c(c1)S(=O)(=O)N(COc1cc(C(=O)OC(C)(C)C)nn1-c1ccccc1)C2=O [33 (b), 4-isoorooyl-6-methoxy-2-[1-phenyl-3-(t-butoxycarbonyl)pyrazol-5-yl-oxymethyl]-1,2-benzisothiazol-23 (2H)-one 1,1-dioxide]
Second: COc1cc(C(C)C)c2c(c1)S(=O)(=O)N(COc1cc(C#N)nn1-c1ccccc1)C2=O [Example 35, 4-isopropyl-6-methoxy-2-(1-phenyl-3-cyanopyrazol-5-yl-oxymethyl)-1,2-benziso thiazol-3(2H)-one 1,1-dioxide]
The Ki of the first is 7.1-fold higher: 0.1 nM for the first, 0.014 nM for the second. The second binds more tightly here.

`CCN(CC)Cc1ccc(COc2cc(C(C)C)c3c(c2)S(=O)(=O)N(COc2cc(C(F)(F)F)nn2-c2ccccc2)C3=O)o1` [29 (b)] and `CC(C)c1cc(OCc2ccc(CN(C)C)o2)cc2c1C(=O)N(COc1cc(C(F)(F)F)nn1-c1ccccc1)S2(=O)=O` [Example 13] are within 1.5-fold of each other in Ki: 0.082 nM for the first, 0.12 nM for the second.

Compared with `COc1cc(C(C)C)c2c(c1)S(=O)(=O)N(COc1cc(C(F)(F)F)nn1C)C2=O` [Example 25, 4-isopropyl-6-methoxy-2-(1-methyl-3-trifluoromethylpyrazol-5-yl-oxymethyl)-1,2-benzisothiazol-3(2H)-one 1,1-dioxide], `COc1cc(C(C)C)c2c(c1)S(=O)(=O)N(COc1cc(C(F)(F)F)nn1-c1ccncc1)C2=O` [22 (b), 4-isopropyl-6-methoxy-2-[1-(4-pyridyl)-3-trifluoromethylpyrazol-5-yl-oxymethyl]-1,2-benzisothiazol-3(2H)-one 1,1-dioxide] is 1.8-fold higher in Ki: 0.1 nM for the first, 0.18 nM for the second.

First: CC(C)c1cc(OCC(C)(C)C(=O)O)cc2c1C(=O)N(COc1cc(C(F)(F)F)nn1-c1ccccc1)S2(=O)=O [18 (b), 4-isopropyl-6-[2-(carboxy-2-methyl)propoxy]-2-(1-phenyl-3-trifluoromethylpyrazol-5-yl-oxymethyl)-1,2-benzisothiazol-3(2H)-one 1,1-dioxide]
Second: COc1cc(C(C)C)c2c(c1)S(=O)(=O)N(COc1cc(C(F)(F)F)nn1-c1cccnc1)C2=O [20 (c), 4-isopropyl-6-methoxy-2-[1-(3-lpyridyl)-3-(trifluoromethyl)pyrazol-5-yl-oxymethyl]-1,2-benzisothiazol-3(2H)-one 1,1-dioxide]
The Ki of the first is 5.9-fold higher: 0.22 nM for the first, 0.037 nM for the second.

`COc1cc(C(C)C)c2c(c1)S(=O)(=O)N(COc1cc(C)nn1-c1ccc([N+](=O)[O-])cc1)C2=O` [Example 7, 4-isopropyl-6-methoxy-2-[1-(p-nitrophenyl)-3-methylpyrazol-5-yl-oxymethyl]-1,2-benzisothiazol-3(2H)-one 1,1-dioxide] and `COc1cc(C(C)C)c2c(c1)S(=O)(=O)N(COc1cc(C(F)(F)F)nn1-c1ccc([N+](=O)[O-])cc1)C2=O` [11 (c), 4-isopropyl-6-methoxy-2-[1-(4-nitrophenyl)-3-trifluoromethylpyrazol-5-yl-oxymethyl)-1,2-benzisothiazol-3(2H)-one 1,1-dioxide] are within 1.5-fold of each other in Ki: 0.076 nM for the first, 0.089 nM for the second.

Going from `COc1cc(C(C)C)c2c(c1)S(=O)(=O)N(COc1c(Cl)c(C(F)(F)F)nn1-c1ccccc1)C2=O` [16 (b), 4-isopropyl-6-methoxy-2-(1-phenyl-3-trifluoromethyl-4-chloropyrazol-5-yl-oxymethyl)-1,2-benzisothiazol-3(2H)-one 1,1-dioxide] to `COc1cc(C(C)C)c2c(c1)S(=O)(=O)N(COc1cc(C(F)(F)F)nn1-c1ccc(Cl)cn1)C2=O` [28 (c), 4-isopropyl-6-methoxy-2-[1-(5-chloro-2-pyridyl)-3-(trifluoromethyl)pyrazol-5-yl-oxymethyl]-1,2-benzisothiazol-3(2H)-one 1,1-dioxide], the Ki falls from 1.6 nM to 0.089 nM (18-fold).

`COc1cc(C(C)C)c2c(c1)S(=O)(=O)N(COc1cc(-c3c(F)c(F)c(F)c(F)c3F)nn1-c1ccccc1)C2=O` [19 (c)] and `COc1cc(C(C)C)c2c(c1)S(=O)(=O)N(COc1cc(-c3ccccc3)nn1-c1ccccc1)C2=O` [5 (b), 4-isopropyl-6-methoxy-2-(1,3-diphenylpyrazol-5-yl-oxymethyl)-1,2-benzisothiazol-3(2H)-one 1,1-dioxide] are within 1.5-fold of each other in Ki: 0.82 nM for the first, 0.92 nM for the second.

First: COc1cc(C(C)C)c2c(c1)S(=O)(=O)N(COc1cc(C(=O)NCCN3CCCC3)nn1-c1ccccc1)C2=O [23 (b), 4-isopropyl-6-methoxy-2-[1-phenyl-3-(C(O)NH(CH2)2-1-pyrrolidinyl)pyrazol-5-yl-oxymethyl]-1,2-benzisothiazol-3(2H)-one 1,1-dioxide]
Second: COc1cc(C(C)C)c2c(c1)S(=O)(=O)N(COc1cc(-c3ccccc3)nn1C)C2=O [2 (b), 4-isopropyl-6-methoxy-2-(1-methyl-3-phenylpyrazol-5-yl-oxymethyl)-1,2-benzisothiazol-3(2H)-one 1,1-dioxide]
The Ki of the first is 7.2-fold lower: 0.065 nM for the first, 0.47 nM for the second. The first binds more tightly here.

`COc1cc(C(C)C)c2c(c1)S(=O)(=O)N(COc1cc(-c3ccncc3)nn1-c1ccc(Cl)cc1)C2=O` [14 (c), 4-isopropyl-6-methoxy-2-[1-(4-chlorophenyl)-3-(4-pyridyl)pyrazol-5-yl-oxymethyl]-1,2-benzisothiazol-3(2H)-one 1,1-dioxide] and `COc1ccc(-n2nc(C(F)(F)F)cc2OCN2C(=O)c3c(C(C)C)cc(OC)cc3S2(=O)=O)cc1` [15 (b), 4-isopropyl-6-methoxy-2-[1-(4-methoxyphenyl)-3-trifluoromethylpyrazol-5-yl-oxymethyl)-1,2-benzisothiazol-3(2H)-one 1,1-dioxide] are within 1.5-fold of each other in Ki: 0.19 nM for the first, 0.13 nM for the second.
